Read-outs that look alike come from different tables or passages of the source.
Columns and labels:
in vitro = in vitro ADME, human; conditions: pH 7.4
Description: Assay 3: Metabolic Stability of Test Compounds (HLM15′)
Sub-cellular tissue preparations are made according to Gorrod et al. (Xenobiotica, 5, pp. 453-462 (1975)) by centrifugal separation after mechanical homogenization of tissue. Human liver tissue is rinsed in ice-cold 0.1 M Tris-HCl (pH 7.4) buffer to wash excess blood. Tissue is then blotted dry, weighed and chopped coarsely using surgical scissors. The tissue pieces are homogenized in 3 volumes of ice-cold 0.1 M phosphate buffer (pH 7.4) using either a Potter-S (Braun, Italy) equipped with a Teflon pestle or a Sorvall Omni-Mix homogenizer, for 7×10 sec. In both cases, the vessel is kept in/on ice during the homogenization process. Tissue homogenates are centrifuged at 9000×g for 20 min at 4° C. using a Sorvall centrifuge or Beckman Ultracentrifuge. The resulting supernatant can be stored at −80° C. and is designated ‘S9’. The S9 fraction is centrifuged at 100,000×g for 60 min at 4° C. using a Beckman ultracentrifuge. The resulting supernatant is carefully aspirated, aliquoted and designated ‘cytosol’. The pellet is re-suspended in 0.1 M phosphate buffer (pH 7.4) in a final volume of 1 ml per 0.5 g original tissue weight and designated ‘microsomes’. All sub-cellular fractions are aliquoted, immediately frozen in liquid nitrogen and stored at −80° C. until use.
Heat-inactivated (10 min at 95° C.) ‘S9’ or microsomes were used for blank experiments. Reaction mixtures were incubated at 37° C. for 5 min, after which the reaction was started by the addition of 0.8 mM β-NADP. The reaction was incubated for 0 or 15 min. Next, the reaction was stopped by addition of 2 volumes of DMSO (or acetonitrile). Samples were centrifuged (10 min, 900×g) and analyzed by LC-MS.

[1] = test system: wild-type HIV-1 IIIB strain; test: Antiviral activity in MT4 LTR-EGFP cellular assay; assay type: cell-based; conditions: read-out: Antiviral Activity IIIB pEC50 (converted)
Method: (§1) Assay 1 &2: Antiviral Activity/Toxicity
The compounds of the present invention were tested for antiviral activity in a cellular assay, which was performed according to the following procedure.
The human T-cell line MT4 is engineered with Green Fluorescent Protein (GFP) and an HIV-specific promoter, HIV-1 long terminal repeat (LTR). This cell line is designated MT4 LTR-EGFP, and can be used for the in vitro evaluation of anti-HIV activity of investigational compounds. In HIV-1 infected cells, the Tat protein is produced which upregulates the LTR promotor and finally leads to stimulation of the GFP reporter production, allowing measuring ongoing HIV-infection fluorometrically.
(§2) The ratio of CC50 to EC50 is defined as the selectivity index (SI) and is an indication of the selectivity of the anti-HIV activity of the inhibitor. The ultimate monitoring of HIV-1 infection and cytotoxicity is done using a scanning microscope. Image analysis allows very sensitive detection of viral infection. Measurements are done before cell necrosis, which usually takes place about five days after infection, in particular measurements are performed three days after infection.
A pEC50 value corresponds to −log10(EC50). A pCC50 value corresponds to −log10(CC50).

[2] = Cytotoxicity in mock-infected MT4 CMV-EGFP cells; assay type: cell-based; conditions: human, pCC50 = -log10(CC50), read-out: Toxicity MT4 pCC50 (converted)
Description: as §1
Analogously, MT4 cells are engineered with GFP and the constitutional cytomegalovirus (CMV) promotor. This cell line is designated MT4 CMV-EGFP, and can be used for the in vitro evaluation of cytotoxicity of investigational compounds. In this cell line, GFP levels are comparably to those of infected MT4 LTR-EGFP cells. Cytotoxic investigational compounds reduce GFP levels of mock-infected MT4 CMV-EGFP cells.
as §2, with “Effective concentration values such as 50% effective concentration (EC50) can be determined and are usually expressed in μM. An EC50 value is defined as the concentration of test compound that reduces the fluorescence of HIV-infected cells by 50%. The 50% cytotoxic concentration (CC50 in μM) is defined as the concentration of test compound that reduces fluorescence of the mock-infected cells by 50%. The ratio” for “The ratio”
Table 2 lists pEC50 values against the wild-type HIV-1 IIIB strain as well as pCC50 values for a selected number of compounds of the invention. A pEC50 value corresponds to −log10(EC50). A pCC50 value corresponds to −log10(CC50).

CYP2C9 = CYP2C9 (Homo sapiens, UniProt P11712); test: CYP450 inhibition, fluorescent substrate assay, CYP2C9; assay type: biochemical
CYP2C9, sequence (P11712 whole entry): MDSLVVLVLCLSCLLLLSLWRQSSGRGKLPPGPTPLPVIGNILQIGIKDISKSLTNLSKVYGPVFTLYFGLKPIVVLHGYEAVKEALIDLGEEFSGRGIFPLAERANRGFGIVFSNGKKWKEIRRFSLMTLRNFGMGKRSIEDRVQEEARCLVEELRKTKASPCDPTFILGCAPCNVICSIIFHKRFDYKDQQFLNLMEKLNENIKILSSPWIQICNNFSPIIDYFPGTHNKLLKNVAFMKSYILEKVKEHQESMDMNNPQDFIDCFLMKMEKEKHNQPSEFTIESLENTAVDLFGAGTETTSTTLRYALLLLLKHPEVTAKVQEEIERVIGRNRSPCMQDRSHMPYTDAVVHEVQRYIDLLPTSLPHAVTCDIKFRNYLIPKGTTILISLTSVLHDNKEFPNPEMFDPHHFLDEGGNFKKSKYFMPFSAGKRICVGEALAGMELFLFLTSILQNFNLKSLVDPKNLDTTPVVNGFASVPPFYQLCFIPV
Method: (§3) Assay 4: CYP450 Inhibition […] This fluorescent molecule was measured using a fluorescent plate reader (Victor2 (Wallac) or Fluoroskan (Labsystems)). Compounds inhibiting the enzymatic reaction will result in a decrease of fluorescent signal. CYP P450 enzymes were prepared in house or commercially bought and stored at −80° C. [table] The assay was performed in black 96 well Costar plates. Test compounds were added to a CYP P450 enzyme solution in the presence of an NADPH generating system. After 5 min of preincubation at 37° C., the freshly prepared, phosphate buffered (pH 7.4) substrate solution was added. Known CYP P450 inhibitors were used as positive controls, negative controls were run without CYP P450 enzyme. For final reaction mixture concentrations, see Table 6. […] Then, the reaction was stopped by the addition of 200 μl acetonitrile, and the fluorescent signal was detected. [table] […] Inhibition of TMC114 Metabolisation

CYP2C19 = target: T1, CYP2C19 (Homo sapiens, UniProt P33261); test: CYP450 inhibition, fluorescent substrate assay, CYP2C19; assay type: biochemical; conditions: E. coli expressed CYP2C19, pH 7.4, probe CEC (25 μM), 10 μM test compound, substrate CEC 25 μM, read-out: 2C19-CEC % inh.
T1 construct: host or cells: E. coli
T1 sequence (P33261 whole entry): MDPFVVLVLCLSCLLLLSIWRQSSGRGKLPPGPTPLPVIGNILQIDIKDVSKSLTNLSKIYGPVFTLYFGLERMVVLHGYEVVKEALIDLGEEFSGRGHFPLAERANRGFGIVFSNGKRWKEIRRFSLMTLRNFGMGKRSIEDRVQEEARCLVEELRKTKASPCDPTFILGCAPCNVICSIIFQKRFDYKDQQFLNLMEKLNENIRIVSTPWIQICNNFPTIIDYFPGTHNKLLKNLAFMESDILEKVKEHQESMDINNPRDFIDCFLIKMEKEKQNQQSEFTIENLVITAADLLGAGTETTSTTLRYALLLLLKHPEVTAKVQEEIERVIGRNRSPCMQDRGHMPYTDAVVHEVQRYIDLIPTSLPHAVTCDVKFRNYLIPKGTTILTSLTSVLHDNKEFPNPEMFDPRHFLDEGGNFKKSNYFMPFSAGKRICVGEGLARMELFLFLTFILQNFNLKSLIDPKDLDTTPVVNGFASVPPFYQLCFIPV
Method: as §3

CYP1A2 = target: T2, CYP1A2 (Homo sapiens, UniProt P05177); test: CYP450 inhibition, fluorescent substrate assay, CYP1A2; assay type: biochemical; conditions: E. coli expressed CYP1A2, pH 7.4, probe CEC (5 μM), 10 μM test compound, substrate CEC 5 μM, read-out: 1A2-CEC % inh.
T2 construct: host or cells: E. coli
T2 sequence (P05177 1-516): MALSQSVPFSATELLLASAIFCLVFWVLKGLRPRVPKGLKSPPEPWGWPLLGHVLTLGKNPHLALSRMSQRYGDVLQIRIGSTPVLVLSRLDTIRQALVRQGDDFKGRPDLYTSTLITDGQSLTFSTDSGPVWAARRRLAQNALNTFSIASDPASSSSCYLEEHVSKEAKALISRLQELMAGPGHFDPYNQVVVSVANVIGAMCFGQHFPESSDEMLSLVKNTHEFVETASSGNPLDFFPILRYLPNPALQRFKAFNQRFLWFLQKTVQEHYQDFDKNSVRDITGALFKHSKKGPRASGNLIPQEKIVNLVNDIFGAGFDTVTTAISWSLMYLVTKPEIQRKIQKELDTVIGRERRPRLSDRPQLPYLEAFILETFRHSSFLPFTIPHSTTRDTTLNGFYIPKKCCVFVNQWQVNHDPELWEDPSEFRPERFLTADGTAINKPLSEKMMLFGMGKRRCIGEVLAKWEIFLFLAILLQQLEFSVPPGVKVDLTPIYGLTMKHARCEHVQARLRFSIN
Method: as §3

CYP2D6 = target: T3, CYP2D6 (Homo sapiens, UniProt P10635); test: CYP450 inhibition, fluorescent substrate assay, CYP2D6; assay type: biochemical; conditions: E. coli expressed CYP2D6, pH 7.4, probe AMMC (3 μM), 10 μM test compound, substrate AMMC 3 μM, read-out: 2D6-AMMC % inh.
T3 construct: host or cells: E. coli
T3 sequence (P10635 whole entry): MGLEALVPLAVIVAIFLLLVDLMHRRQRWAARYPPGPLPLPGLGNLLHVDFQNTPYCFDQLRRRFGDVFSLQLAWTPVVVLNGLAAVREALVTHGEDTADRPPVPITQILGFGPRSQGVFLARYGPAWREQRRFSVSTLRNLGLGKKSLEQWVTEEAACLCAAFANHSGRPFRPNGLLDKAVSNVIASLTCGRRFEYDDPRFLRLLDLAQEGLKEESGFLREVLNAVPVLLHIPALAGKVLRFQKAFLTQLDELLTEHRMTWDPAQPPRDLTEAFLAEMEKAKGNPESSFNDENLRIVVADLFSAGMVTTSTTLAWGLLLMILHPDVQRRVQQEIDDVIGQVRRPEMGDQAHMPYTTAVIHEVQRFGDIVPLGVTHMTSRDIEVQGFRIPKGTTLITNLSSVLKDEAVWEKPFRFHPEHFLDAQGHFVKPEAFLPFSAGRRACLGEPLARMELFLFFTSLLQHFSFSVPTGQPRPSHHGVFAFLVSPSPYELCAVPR
Method: as §3

CYP3A4 = target: T4, CYP3A4 (Homo sapiens, UniProt P08684); test: CYP450 inhibition, fluorescent substrate assay, CYP3A4; assay type: biochemical; conditions: 10 μM test compound; for inhibition at 10 min, 10 μM: E. coli expressed CYP3A4, pH 7.4, probe DBF (1 μM), substrate DBF 1 μM, read-out: 3A4-DBF % inh.
T4 construct: host or cells: E. coli
T4 sequence (P08684 whole entry): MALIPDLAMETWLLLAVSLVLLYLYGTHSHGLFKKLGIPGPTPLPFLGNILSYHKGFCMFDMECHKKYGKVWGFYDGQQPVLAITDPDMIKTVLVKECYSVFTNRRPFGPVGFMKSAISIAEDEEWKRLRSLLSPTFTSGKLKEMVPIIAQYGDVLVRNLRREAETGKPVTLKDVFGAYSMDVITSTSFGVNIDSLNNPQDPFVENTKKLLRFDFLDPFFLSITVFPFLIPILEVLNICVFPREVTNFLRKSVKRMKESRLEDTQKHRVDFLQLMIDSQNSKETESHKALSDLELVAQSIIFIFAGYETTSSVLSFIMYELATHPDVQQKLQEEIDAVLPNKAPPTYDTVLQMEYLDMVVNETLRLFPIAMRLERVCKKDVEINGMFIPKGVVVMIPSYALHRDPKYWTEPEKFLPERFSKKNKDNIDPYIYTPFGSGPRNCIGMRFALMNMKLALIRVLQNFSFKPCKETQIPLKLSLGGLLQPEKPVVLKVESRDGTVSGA
Method: as §3

[3] = Human immunodeficiency virus 1, 72 h, wild-type HIV-1 IIIB, MT4 LTR-EGFP cells, three days after infection, pEC50 = -log10(EC50)
[4] = E. coli expressed CYP3A4, pH 7.4, probe BFC (150 μM), substrate BFC 150 μM, read-out: 3A4-BFC % inh.
[5] = E. coli expressed CYP3A4, pH 7.4, probe BQ (60 μM), substrate BQ 60 μM, read-out: 3A4-BQ % inh.

SMILES: CC(C)CN(C[C@@H](O)[C@H](Cc1ccccc1)NC(=O)OCc1cncs1)C(=O)c1cccc(Cl)c1 [Compound C15]
- recovery at 15 min, 5 μM (in vitro; human): 57%
- EC50 [1, 3]: 50.1 µM
- CC50 at 3 days [2]: 42.7 µM
- inhibition at 30 min, 10 μM (CYP2C9; pH 7.4): 97%
- inhibition at 30 min, 10 μM (CYP2C19): 92%
- inhibition at 15 min, 10 μM (CYP1A2): 51%
- inhibition at 45 min, 10 μM (CYP2D6): 41%
- inhibition at 30 min, 10 μM (CYP3A4; [4]): 75%
- inhibition at 30 min, 10 μM (CYP3A4; [5]): 80%
- inhibition at 10 min, 10 μM (CYP3A4): 92%

SMILES: CC(C)CN(C[C@@H](O)[C@H](Cc1ccccc1)NC(=O)OCc1cncs1)C(=O)C1CCC(F)(F)CC1 [Compound C23]
- recovery at 15 min, 5 μM (in vitro; human): 72%
- EC50 [1, 3]: 51.3 µM
- CC50 at 3 days [2]: 55 µM
- inhibition at 30 min, 10 μM (CYP2C9; pH 7.4): 89%
- inhibition at 30 min, 10 μM (CYP2C19): 77%
- inhibition at 15 min, 10 μM (CYP1A2): 22%
- inhibition at 45 min, 10 μM (CYP2D6): 65%
- inhibition at 30 min, 10 μM (CYP3A4; [4]): 94%
- inhibition at 30 min, 10 μM (CYP3A4; [5]): 73%
- inhibition at 10 min, 10 μM (CYP3A4): 92%

SMILES: Cc1ccc(C(=O)N(CC(C)C)C[C@@H](O)[C@H](Cc2ccccc2)NC(=O)OCc2cncs2)cc1 [Compound C3]
- recovery at 15 min, 5 μM (in vitro; human): 54%
- EC50 [1, 3]: 52.5 µM
- CC50 at 3 days [2]: 70.8 µM
- inhibition at 30 min, 10 μM (CYP2C9; pH 7.4): 99%
- inhibition at 30 min, 10 μM (CYP2C19): 90%
- inhibition at 15 min, 10 μM (CYP1A2): 20%
- inhibition at 45 min, 10 μM (CYP2D6): 49%
- inhibition at 30 min, 10 μM (CYP3A4; [4]): 95%
- inhibition at 30 min, 10 μM (CYP3A4; [5]): 85%
- inhibition at 10 min, 10 μM (CYP3A4): 97%

SMILES: CC(C)CN(C[C@@H](O)[C@H](Cc1ccccc1)NC(=O)OCc1cncs1)C(=O)c1ccncc1 [Compound C8]
- recovery at 15 min, 5 μM (in vitro; human): 81%
- EC50 [1, 3]: > 100 µM
- CC50 at 3 days [2]: > 100 µM
- inhibition at 30 min, 10 μM (CYP2C9; pH 7.4): 95%
- inhibition at 30 min, 10 μM (CYP2C19): 76%
- inhibition at 15 min, 10 μM (CYP1A2): 4%
- inhibition at 45 min, 10 μM (CYP2D6): 39%
- inhibition at 30 min, 10 μM (CYP3A4; [4]): 91%
- inhibition at 30 min, 10 μM (CYP3A4; [5]): 79%
- inhibition at 10 min, 10 μM (CYP3A4): 91%

SMILES: CC(C)CN(C[C@@H](O)[C@H](Cc1ccccc1)NC(=O)OCc1cncs1)C(=O)c1cccc(C(F)(F)F)c1 [Compound C11]
- recovery at 15 min, 5 μM (in vitro; human): 52%
- EC50 [1, 3]: 38 µM
- CC50 at 3 days [2]: 34.7 µM
- inhibition at 30 min, 10 μM (CYP2C9; pH 7.4): 97%
- inhibition at 30 min, 10 μM (CYP2C19): 100%
- inhibition at 15 min, 10 μM (CYP1A2): 45%
- inhibition at 45 min, 10 μM (CYP2D6): 86%
- inhibition at 30 min, 10 μM (CYP3A4; [4]): 94%
- inhibition at 30 min, 10 μM (CYP3A4; [5]): 78%
- inhibition at 10 min, 10 μM (CYP3A4): 99%

SMILES: O=C(N[C@@H](Cc1ccccc1)[C@H](O)CN(CC1CCCCC1)C(=O)c1ccncc1)OCc1cncs1 [Compound C27]
- recovery at 15 min, 5 μM (in vitro; human): 98%
- EC50 [1, 3]: 74.1 µM
- CC50 at 3 days [2]: 83.2 µM
- inhibition at 30 min, 10 μM (CYP2C9; pH 7.4): 84%
- inhibition at 30 min, 10 μM (CYP2C19): 96%
- inhibition at 15 min, 10 μM (CYP1A2): 10%
- inhibition at 45 min, 10 μM (CYP2D6): 86%
- inhibition at 30 min, 10 μM (CYP3A4; [4]): 101%
- inhibition at 30 min, 10 μM (CYP3A4; [5]): 81%
- inhibition at 10 min, 10 μM (CYP3A4): 90%

SMILES: CC(C)CN(C[C@@H](O)[C@H](Cc1ccccc1)NC(=O)OCc1cncs1)C(=O)c1cccc(Br)c1 [Compound C17]
- recovery at 15 min, 5 μM (in vitro; human liver microsomes 1 mg/ml, 5 μM test compound, 15 min, 37° C., read-out: % recovery HLM15): 68%
- EC50 ([1]; Human immunodeficiency virus 1, IIIB, 72 h): 41.7 µM
- CC50 at 3 days [2]: 36.3 µM
- inhibition at 30 min, 10 μM (CYP2C9; pH 7.4, 10 μM test compound, substrate MFC 200 μM, 30 min, read-out: 2C9-MFC % inh.): 98%
- inhibition at 30 min, 10 μM (CYP2C19): 87%
- inhibition at 15 min, 10 μM (CYP1A2): 55%
- inhibition at 45 min, 10 μM (CYP2D6): 46%
- inhibition at 30 min, 10 μM (CYP3A4; [4]): 57%
- inhibition at 30 min, 10 μM (CYP3A4; [5]): 81%
- inhibition at 10 min, 10 μM (CYP3A4): 93%
